Data taken from ChEMBL document CHEMBL4052656, “The synthesis and evaluation of triazolopyrimidines as anti-tubercular agents” (Bioorg Med Chem, 2017).
Calls of active or inactive are those of the source. No cut-off for these calls is given here.

Legend:
[1] = test system: Mycobacterium tuberculosis; test: Bacteriostatic activity against replicating Mycobacterium tuberculosis H37Rv by agar dilution method; type: functional
[2] = test system: Mycobacterium tuberculosis; test: Bactericidal activity against replicating Mycobacterium tuberculosis H37Rv after 21 days by agar dilution method; type: functional
[3] = Selectivity index, ratio of IC50 for human HepG2 cells to MIC90 for Mycobacterium tuberculosis H37Rv; type: toxicity; conditions: read-out: Selectivity Index

Row | SMILES | Activity [1] | Activity [2] | selectivity ratio [3]
1 | FC(F)(F)Oc1ccc(CCNc2cc(-c3ccccc3)nc3ncnn23)cc1 | Active | inactive | –
2 | COc1ccc(CCNc2cc(-c3ccccn3)nc3ncnn23)cc1 | Active | inactive | –
3 | COc1ccc(CC(=O)Nc2cc(-c3ccccc3)nc3ncnn23)cc1 | Active | inactive | –
4 | COc1ccc(CCNc2cc(-c3ccc(F)cc3)nc3ncnn23)cc1 | – | – | > 21
